Measured values from patent publication US20030114512A1, “Compounds with 5-ht2 and 5-ht1a agonist activity for treating glaucoma” (priority 2002, published 2003).
Where two headings read alike, the source gives them in different places.

Tests used:
[1] = target: T1, 5-HT1A receptor (UniProt P08908); assay: 5-HT1A functional assays (inhibition of forskolin-stimulated adenylate cyclase / cAMP); type: biochemical; conditions: for EC50: read-out: EC50, nM (SEM) 5-HT1A functional
T1 sequence (P08908 1-422): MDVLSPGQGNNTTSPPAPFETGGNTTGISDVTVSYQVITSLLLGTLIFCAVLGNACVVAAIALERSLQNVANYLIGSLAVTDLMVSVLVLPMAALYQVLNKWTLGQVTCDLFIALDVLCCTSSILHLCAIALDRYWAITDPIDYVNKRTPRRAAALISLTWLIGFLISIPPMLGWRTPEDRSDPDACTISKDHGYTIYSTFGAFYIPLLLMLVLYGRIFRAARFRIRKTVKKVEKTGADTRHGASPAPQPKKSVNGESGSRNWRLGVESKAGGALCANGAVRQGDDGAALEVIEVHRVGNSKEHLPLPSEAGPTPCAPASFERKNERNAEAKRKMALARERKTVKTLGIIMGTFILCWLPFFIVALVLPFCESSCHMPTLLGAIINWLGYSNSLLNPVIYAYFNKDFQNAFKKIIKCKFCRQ
Description: The function of Compounds of the present invention can be determined using a variety of methods to assess the functional activity of 5-HT1A agonists. One such assay is performed using hippocampal slices from male Sprague-Dawley rats, measuring the inhibition of forskolin-stimated adenylate cyclase [J. Med. Chem. 42. 36 (1999), J. Neurochem. 56, 1114 (1991), J. Pharm. Exper. Ther. 284:1082 (1998). Rat hippocampal membranes were homogenized in 25 volumes of 0.3 M sucrose containing 1 mM EGTA, 5 mM EDTA, 5 mM dithiothreitol, and 20 mM Tris-HCl, pH 7.4 at 25° C. The homogenate was centrifuged for 10 m in at 1,000×g. The supernatant subsequently was centrifuged at 39,000×g for 10 min. The resulting pellet was re-suspended in homogenization buffer at a protein concentration of approximately 1 mg/ml and aliquots were stored at −140° C. Prior to use, the membranes were rehomogenized in a Potter-Elvehjem homogenizer. Fifty μl of the membrane suspension (50 μg protein) were added to an incubation buffer containing 100 mM NaCl, 2 mM magnesium acetate, 0.2 mM ATP, 1 mM cAMP, 0.01 mM GTP, 0.01 mM forskolin, 80 mM Tris-HCl, 5 mM creatine phosphate, 0.8 U/μl creatine phosphokinase, 0.1 mM IBMX, 1-2 μCi α-[^32P]ATP. Incubations with test compounds (10 min at 30° C.) were initiated by the addition of the membrane solution to the incubation mixture (prewarmed 5 min at 30° C.). [^32P]cAMP was measured according to the method of Salomon (Adv. Cyclic Nucleotide Res. 10:35-55, 1979). Protein was measure using the Bradford (Anal. Biochem 72:248-254, 1976) assay.
Functional activity can also be determined in recombinant human receptors according to the method of Schoeffter et al., (Neuropharm. 36:429-437, 1997). HeLa cells transfected with recombinant human 5-HT1A receptors were grown to confluence in 24-well plates. The cells were rinsed with 1 ml of Hepes-buffered saline (in mM) NaCl 130, KCl 5.4, CaCl2, 1.8, MgSO4 0.8, NaH2PO4 0.9, glucose 25, Hepes 20, pH 7.4, and phenol red 5 mg/l. The cells were labelled with 6 μCi/ml of [^3H] adenine (23 Ci/mmol, Amersham, Rahn AG, Zurich, Switzerland) in 0.5 ml of saline at 37° C. for 2 hr. The plates were subsequently rinsed twice with 1 ml of buffered saline containing 1 mM isobutylmethylxanthine. The cells were incubated for 15 min in 1 ml of this solution (37° C.) in the presence or absence of 10 μM forskolin and the test compound. The buffer was then removed and 1 ml of 5% trichloroacetic acid (TCA) containing 0.1 mM cAMP and 0.1 mM ATP was added to extract the samples. After 30 min at 4° C., the TCA extracts were subjected to chromatographic separation on Dowex AG 50W-X4 and alumina columns (Salomon, Methods in Enzymology 195: 22-28, 1991). Cyclic AMP production was calculated as the ratio [^3H]cAMP/([^3H]cAMP+[^3H]ATP).

[2] = test system: intraocular pressure; assay: IOP response in lasered (hypertensive) eyes of conscious cynomolgus monkeys; type: in vivo, cynomolgus monkey
Description: IOP Response in Lasered (Hypertensive) Eyes of Conscious Cynomolgus Monkeys
Intraocular pressure (IOP) was determined with an Alcon Pneumatonometer after light corneal anesthesia with 0.1% proparacaine. Eyes were washed with saline after each measurement. After a baseline IOP measurement, test compound was instilled in one 30 μL aliquot to the right eyes only of nine cynomolgus monkeys. Vehicle was instilled in the right eyes of six additional animals. Subsequent IOP measurements were taken at 1, 3, and 6 hours.

[3] = target: T2, human cloned 5-HT1A receptors (Homo sapiens, UniProt P08908); assay: 5-HT1A receptor binding assay ([3H]8-OH-DPAT)
T2 construct: purchased NEN (manufactured by Biosignal, Inc., Montreal, Canada); host or cells: CHO cells (membranes)
T2 sequence (P08908 1-422): T1 sequence (P08908 1-422)
Description: 5-HT1A Receptor Binding Assay
5-HT1A binding studies were performed with human cloned receptors expressed in Chinese hamster ovary (CHO) cells using (^3H)8-OH DPAT as the ligand. Membranes from Chinese hamster ovary cells (CHO) expressing cloned 5-HT1A receptors (manufactured for NEN by Biosignal, Inc., Montreal, Canada) were homogenized in approximately 40 volumes of 50 mM Tris pH 7.4 for 5 sec. Drug dilutions were made using a Beckman Biomek 2000 robot (Beckman Instruments, Fullerton, Calif.). Incubations were conducted with membrane prep, test compounds, and 0.25 nM [^3H]8-OH-DPAT (NEN, Boston, Mass.) in the same buffer at 27° C. for 1 h. Assays were terminated by rapid vacuum filtration over Whatman GF/B glass fiber filters pre-soaked in 0.3% polyethyleneimine. Bound radioactivity was measured using liquid scintillation spectrometry. Data were analyzed using non-linear curve fitting programs (Sharif et al., J. Pharmac. Pharmacol. 51: 685-694, 1999).
Ligand binding studies can also be run using membrane preparations from calf and rat brain (local source) and human cortex membranes. Specific brain regions were dissected out, homogenized in 10 volumes of 0.32 M sucrose and centrifuged for 10 min at 700×g. The resulting supernatant was centrifuged at 43,500×g for 10 min and the pellet re-suspended in 50 mM Tris-HCl (pH 7.7, 25° C.) using a 10 sec polytron treatment. Aliquots were stored at −140° C. To remove endogenous serotonin, the preps were incubated at 37° C. for 10 min prior to the experiment. Assay incubations were terminated by rapid filtration over Whatman GF/C filters using a Brandel cell harvester. Ki values were calculated using the Cheng-Prusoff equation (De Vry et al., J. Pharm. Exper. Ther. 284:1082-1094, 1998.)

[4] = 300 μg topical ocular, 1 hour after dose
[5] = 300 μg topical ocular, 3 hours after dose
[6] = 300 μg topical ocular, 6 hours after dose

**Q.** With `COc1ccc2[nH]cc(CC(C)N)c2c1.O=C(O)/C=C/C(=O)O` (stereo not drawn) [α-Methyl 5-methoxytryptamine fumarate] as the molecule, how does the “Efficacy (Emax, %) 5-HT1A functional” value [1] read?
**A.** 92%

**Q.** And the EC50 [1]?
**A.** 570 nM

**Q.** What about the “Percent IOP Reduction” value [2, 4] of the same molecule?
**A.** 14%

**Q.** And the “Percent IOP Reduction” value [2, 5]?
**A.** 23.5%

**Q.** What about the “Percent IOP Reduction” value [2, 6] of the same molecule?
**A.** 22.6%

**Q.** And the IC50 [3]?
**A.** 26.5 nM

**Q.** For `CC(N)Cn1ccc2ccc(O)cc21.O=C(O)/C=C/C(=O)O` (stereo not drawn) [1-(2-aminopropyl) 6-hydroxyindole fumarate], which “Efficacy (Emax, %) 5-HT1A functional” value [1] is on record?
**A.** 89%

**Q.** And the EC50 [1]?
**A.** 780 nM

**Q.** And the “Percent IOP Reduction” value [2, 4]?
**A.** 19.1%

**Q.** And the “Percent IOP Reduction” value [2, 5]?
**A.** 30.1%

**Q.** And the “Percent IOP Reduction” value [2, 6]?
**A.** 27%

**Q.** And the IC50 ([3]; [3H]8-OH-DPAT, CHO cell membranes, read-out: IC50, nM (SEM) 5-HT1A receptor binding)?
**A.** 111 nM

**Q.** `CC(N)Cc1c[nH]c2ccc(O)cc12.O=C(O)/C=C\C(=O)O` (stereo not drawn) [α-Methyl 5-hydroxytryptamine maleate, 3-(2-aminopropyl)-1H-indol-5-ol] was tested. Which “Efficacy (Emax, %) 5-HT1A functional” value [1] did it give?
**A.** 100%

**Q.** And the EC50 [1]?
**A.** 378 nM

**Q.** What about the “Percent IOP Reduction” value ([2]; 250 μg topical ocular, 1 hour after dose) of the same molecule?
**A.** 14.2%

**Q.** What about the “Percent IOP Reduction” value ([2]; 250 μg topical ocular, 3 hours after dose) of the same molecule?
**A.** 25.8%

**Q.** And the “Percent IOP Reduction” value ([2]; 250 μg topical ocular, 6 hours after dose)?
**A.** 30.8%

**Q.** What about the IC50 [3] of the same molecule?
**A.** 22.5 nM
